Laboratory results: the NIST ThermoML archive (doi:10.1016/j.jct.2018.10.015)

Assay: xn = mol fraction of the nth substance listed
Conditions: 101.3 kPa, Liquid; for viscosity: Concentric cylinders viscometry; for mass density: Vibrating tube method

CCCCn1cc[n+](C)c1C.O=S(=O)([N-]S(=O)(=O)C(F)(F)F)C(F)(F)F + CCOC(=O)OCC
Conditions | mass density [kg/m3] | viscosity [mPa·s]
293.15 K, x1 = 0.0996 | 1078.2 | 2.172
293.15 K, x1 = 0.199 | 1156.1 | 4.104
293.15 K, x1 = 0.299 | 1216.4 | 7.648
293.15 K, x1 = 0.3982 | 1263.9 | 13.1
293.15 K, x1 = 0.4985 | 1302.6 | 21.35
293.15 K, x1 = 0.5979 | 1334.6 | 33.14
293.15 K, x1 = 0.698 | 1361.8 | 49.42
293.15 K, x1 = 0.8 | 1385.4 | 71.45
293.15 K, x1 = 0.9012 | 1405.7 | 99.34
293.15 K, x1 = 1 | 1423.1 | 133.6
298.15 K, x1 = 0.0996 | 1072.9 | 1.989
298.15 K, x1 = 0.199 | 1151 | 3.665
298.15 K, x1 = 0.299 | 1211.4 | 6.684
298.15 K, x1 = 0.3982 | 1259 | 11.19
298.15 K, x1 = 0.4985 | 1297.7 | 17.82
298.15 K, x1 = 0.5979 | 1329.8 | 27.06
298.15 K, x1 = 0.698 | 1357.1 | 39.58
298.15 K, x1 = 0.8 | 1380.8 | 56.2
298.15 K, x1 = 0.9012 | 1401.1 | 76.75
298.15 K, x1 = 1 | 1418.5 | 101.82
303.15 K, x1 = 0.0996 | 1067.5 | 1.829
303.15 K, x1 = 0.199 | 1145.8 | 3.295
303.15 K, x1 = 0.299 | 1206.4 | 5.892
303.15 K, x1 = 0.3982 | 1254.1 | 9.654
303.15 K, x1 = 0.4985 | 1292.9 | 15.06
303.15 K, x1 = 0.5979 | 1325.1 | 22.44
303.15 K, x1 = 0.698 | 1352.4 | 32.24
303.15 K, x1 = 0.8 | 1376.1 | 44.95
303.15 K, x1 = 0.9012 | 1396.5 | 60.57
303.15 K, x1 = 1 | 1413.9 | 79.23
308.15 K, x1 = 0.0996 | 1062.1 | 1.689
308.15 K, x1 = 0.199 | 1140.6 | 2.979
308.15 K, x1 = 0.299 | 1201.3 | 5.234
308.15 K, x1 = 0.3982 | 1249.1 | 8.41
308.15 K, x1 = 0.4985 | 1288.1 | 12.88
308.15 K, x1 = 0.5979 | 1320.3 | 18.86
308.15 K, x1 = 0.698 | 1347.6 | 26.64
308.15 K, x1 = 0.8 | 1371.4 | 36.59
308.15 K, x1 = 0.9012 | 1391.9 | 48.62
308.15 K, x1 = 1 | 1409.3 | 62.74
313.15 K, x1 = 0.0996 | 1056.8 | 1.565
313.15 K, x1 = 0.199 | 1135.4 | 2.708
313.15 K, x1 = 0.299 | 1196.3 | 4.682
313.15 K, x1 = 0.3982 | 1244.2 | 7.39
313.15 K, x1 = 0.4985 | 1283.2 | 11.12
313.15 K, x1 = 0.5979 | 1315.5 | 16.03
313.15 K, x1 = 0.698 | 1342.9 | 22.31
313.15 K, x1 = 0.8 | 1366.8 | 30.21
313.15 K, x1 = 0.9012 | 1387.2 | 39.65
313.15 K, x1 = 1 | 1404.8 | 50.56
318.15 K, x1 = 0.0996 | 1051.4 | 1.456
318.15 K, x1 = 0.199 | 1130.3 | 2.472
318.15 K, x1 = 0.299 | 1191.3 | 4.215
318.15 K, x1 = 0.3982 | 1239.3 | 6.543
318.15 K, x1 = 0.4985 | 1278.4 | 9.697
318.15 K, x1 = 0.5979 | 1310.8 | 13.78
318.15 K, x1 = 0.698 | 1338.2 | 18.9
318.15 K, x1 = 0.8 | 1362.1 | 25.27
318.15 K, x1 = 0.9012 | 1382.6 | 32.78
318.15 K, x1 = 1 | 1400.2 | 41.38
323.15 K, x1 = 0.0996 | 1046 | 1.359
323.15 K, x1 = 0.199 | 1125.1 | 2.268
323.15 K, x1 = 0.299 | 1186.3 | 3.816
323.15 K, x1 = 0.3982 | 1234.4 | 5.835
323.15 K, x1 = 0.4985 | 1273.6 | 8.523
323.15 K, x1 = 0.5979 | 1306 | 11.95
323.15 K, x1 = 0.698 | 1333.6 | 16.18
323.15 K, x1 = 0.8 | 1357.5 | 21.39
323.15 K, x1 = 0.9012 | 1378 | 27.46
323.15 K, x1 = 1 | 1395.6 | 34.32
328.15 K, x1 = 0.0996 | 1040.5 | 1.271
328.15 K, x1 = 0.199 | 1119.8 | 2.09
328.15 K, x1 = 0.299 | 1181.2 | 3.473
328.15 K, x1 = 0.3982 | 1229.5 | 5.245
328.15 K, x1 = 0.4985 | 1268.7 | 7.565
328.15 K, x1 = 0.5979 | 1301.3 | 10.47
328.15 K, x1 = 0.698 | 1328.8 | 14.02
328.15 K, x1 = 0.8 | 1352.8 | 18.35
328.15 K, x1 = 0.9012 | 1373.4 | 23.33
328.15 K, x1 = 1 | 1391 | 28.91
